Biological target: T1, mouse TRPV3 (Mus musculus, UniProt Q8K424)
T1 sequence (Q8K424 1-791): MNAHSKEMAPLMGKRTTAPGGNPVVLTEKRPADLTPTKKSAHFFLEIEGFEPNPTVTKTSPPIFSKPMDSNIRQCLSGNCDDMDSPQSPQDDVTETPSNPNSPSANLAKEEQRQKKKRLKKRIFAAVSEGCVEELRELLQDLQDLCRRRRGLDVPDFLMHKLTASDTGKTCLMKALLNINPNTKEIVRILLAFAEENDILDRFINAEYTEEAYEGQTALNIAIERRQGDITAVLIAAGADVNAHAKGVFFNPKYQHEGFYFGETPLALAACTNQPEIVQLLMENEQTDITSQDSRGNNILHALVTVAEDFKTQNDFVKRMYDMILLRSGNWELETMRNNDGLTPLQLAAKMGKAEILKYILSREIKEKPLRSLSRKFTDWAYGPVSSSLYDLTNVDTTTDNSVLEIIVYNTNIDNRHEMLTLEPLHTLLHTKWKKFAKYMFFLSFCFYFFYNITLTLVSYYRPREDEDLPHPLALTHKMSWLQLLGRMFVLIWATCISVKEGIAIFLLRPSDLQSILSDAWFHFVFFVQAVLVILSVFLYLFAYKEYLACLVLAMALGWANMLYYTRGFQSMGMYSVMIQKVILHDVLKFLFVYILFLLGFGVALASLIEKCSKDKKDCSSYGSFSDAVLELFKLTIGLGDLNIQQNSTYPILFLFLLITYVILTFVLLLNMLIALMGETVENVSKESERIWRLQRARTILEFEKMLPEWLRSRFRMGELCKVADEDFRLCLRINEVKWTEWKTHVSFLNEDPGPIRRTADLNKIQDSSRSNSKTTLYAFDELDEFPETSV
Experiment: cell-based
Conditions: for TRPV3 currents response, of control level: 100 µM 2-APB, –60 mV, after sensitization; for EC50: EC50 of 2-APB for TRPV3 activation
Text: The WT mouse TRPV3 (mTRPV3), human TRPV3 (hTRPV3), rat TRPV1, rat TRPV2, rat TRPM8, and mouse TRPA1 cDNAs were generously provided by Dr. Feng Qin (State University of New York at Buffalo, Buffalo, USA). The GFP-mTRPV3 WT and the mutants (mTRPV3-G573S and mTRPV3-G573C) in pcDNA4/TO vector were gifts from Dr. Michael X Zhu (The University of Texas Health Science Center at Houston, Houston, USA). The WT fTRPV3 was kindly provided by Dr. Makoto Tominaga (Department of Physiological Sciences, SOKENDAI, Okazaki, Japan). All mutations were made using the overlap-extension polymerase chain reaction method as previously described ([Tian et al., 2019]). The resulting mutations were then verified by DNA sequencing. HEK 293T and T-Rex 293 cells were grown in Dulbecco’s modified Eagle’s medium (DMEM, Thermo Fisher Scientific, MA) containing 4.5 mg/ml glucose, 10% heat-inactivated fetal bovine serum (FBS), 50 units/ml penicillin, and […], and were incubated at 37°C in a humidified incubator gassed with 5% CO2. For T-Rex 293, blasticidin S (10 μg/ml) was also included. Cells grown into ~80% confluence were transfected with the desired DNA constructs using either the standard calcium phosphate precipitation method or lipofectamine 2000 (Invitrogen, Carlsbad, CA) following the protocol provided by the manufacturer. Transfected HEK 293T cells were reseeded on 12 mm round glass coverslips coated by poly-L-lysine. Experiments took place ~12–24 hr after transfection.
Conventional whole-cell and excised patch-clamp recording methods were used. For the recombinant expressing system, green fluorescent EGFP was used as a surface marker for gene expression. Recording pipettes were pulled from borosilicate glass capillaries (World Precision Instruments) and fire-polished to a resistance between 2 and 4 MΩ when filled with internal solution containing (in mM) 140 CsCl, 2.0 MgCl2, 5 EGTA, and 10 HEPES, pH 7.4 (adjusted with CsOH). Bath solution contained (in mM): 140 NaCl, 5 KCl, 3 EGTA, and 10 HEPES, pH 7.4 adjusted with NaOH. For recordings in keratinocytes, the bath saline consisted of (in mM) 140 NaCl, 5 KCl, 2 MgCl2, 2 CaCl2, 10 glucoses, and 10 HEPES, pH 7.4 adjusted with NaOH, and the pipette solution contained (in mM) 140 CsCl, 5 EGTA, and 10 HEPES, pH 7.3 adjusted with CsOH. For single-channel recordings, the pipette solution and bath solution were symmetrical and contained (in mM) 140 NaCl, 5 KCl, 3 EGTA, and 10 HEPES, pH 7.4. Isolated cells were voltage clamped and held at –60 mV using an EPC10 amplifier with the Patchmaster software (HEKAElectronics, Lambrecht, Germany). For a subset of recordings, currents were amplified using an Axopatch 200B amplifier (Molecular Devices, Sunnyvale, CA) and recorded through a BNC-2090/MIO acquisition system (National Instruments, Austin, TX) using QStudio developed by Dr. Feng Qin at State University of New York at Buffalo. Whole-cell recordings were typically sampled at 5 kHz and filtered at 1 kHz, and single-channel recordings were sampled at 25 kHz and filtered at 10 kHz. The compensation of pipette series resistance and capacitance was compensated using the built-in circuitry of the amplifier (>80%) to reduce voltage errors. Exchange of external solution was performed using a gravity-driven local perfusion system. […] Dyclonine hydrochloride, MTSET and carvacrol were purchased from MCE (MedChemExpress). Unless otherwise noted, all chemicals were purchased from Sigma (Millipore Sigma, St. Louis, MO). Water-insoluble reagents were dissolved in pure ethanol or DMSO to make a stock solution and diluted into the recording solution at the desired final concentrations before the experiment. […] In the scratching behavior experiments, carvacrol was first dissolved in 10% ethanol and then diluted in normal saline before administration.

Row | IC50 [µM] | initial TRPV3 current (100 μM 2-APB with 5 μM dyclonine) [pA/pF] | Hill coefficient nH of inhibition of TRPV3 currents (2-APB-evoked, WT mouse TRPV3) | inhibition at 10 µM (HEK-293T, read-out: inhibition of TRPV3 current (reduction in current amplitude)) [%] | SMILES | TRPV3 currents response, of control level (5 µM dyclonine) | TRPV3 currents response, of control level (10 µM dyclonine) | repetitions to reach the current level of full sensitization (repeated 100 μM 2-APB with 5 μM dyclonine) | initial TRPV3 current (100 μM 2-APB without dyclonine) [pA/pF] | EC50 (with 3 μM dyclonine) [µM] | EC50 (without dyclonine, after full sensitization) [µM] | repetitions to reach full sensitization level (repeated 100 μM 2-APB alone) | Hill coefficient nH of 2-APB activation (with 3 μM dyclonine) | Hill coefficient nH of 2-APB activation (without dyclonine)
1 | 3.2 ± 0.24 | 31.12 ± 2.86 | 2.2 ± 0.32 | 87 | CCCCOc1ccc(C(=O)CCN2CCCCC2)cc1 [dyclonine] | 30% ± 2% | 15% ± 3% | ~ 16 repetitions | – | – | – | – | – | –
2 | – | – | – | – | NCCOB(c1ccccc1)c1ccccc1 [2-APB, 2-aminoethoxydiphenyl borate] | – | – | – | 86.43 ± 5.9 | 22 ± 0.86 | 22.93 ± 0.02 | approximately eight | 1.7 ± 0.1 | 1.6 ± 0.1
